Test results published in PMC6540285, “Evaluation of Protein Kinase Inhibitors with PLK4 Cross-Over Potential in a Pre-Clinical Model of Cancer” (International Journal of Molecular Sciences, 2019).

Assays:
FLT3 = FLT3 (Homo sapiens, UniProt P36888); test: SelectScreen kinase profiling, ZLYTE; assay type: biochemical; settings: FLT3, 10 µM
SGKL (SGK3) = SGKL (SGK3) (Homo sapiens, UniProt Q96BR1); test: SelectScreen kinase profiling, ZLYTE; assay type: biochemical
PI4K2B (PI4K2 beta) = PI4K2B (PI4K2 beta) (Homo sapiens, UniProt Q8TCG2); test: SelectScreen kinase profiling, Adapta; assay type: biochemical
hERG channel = hERG channel (Homo sapiens, UniProt Q12809); test: Predictor hERG fluorescence polarization assay; settings: 10000nM
SPHK2 = SPHK2 (Homo sapiens, UniProt Q9NRA0); test: SelectScreen kinase profiling, Adapta; assay type: biochemical; settings: SPHK2, 10 µM
FRK (PTK5) = FRK (PTK5) (Homo sapiens, UniProt P42685); test: SelectScreen kinase profiling, ZLYTE; assay type: biochemical
MAP4K4 (HGK) = MAP4K4 (HGK) (Homo sapiens, UniProt O95819); test: SelectScreen kinase profiling, ZLYTE; assay type: biochemical
PLK3 = PLK3 (Homo sapiens, UniProt Q9H4B4); test: SelectScreen kinase profiling, ZLYTE; assay type: biochemical; settings: PLK3, 10 µM
AMPK (A1/B1/G2) = AMPK (A1/B1/G2) (Homo sapiens, UniProt Q13131); test: SelectScreen kinase profiling, LanthaScreen binding
CDK13/cyclin K = CDK13/cyclin K (Homo sapiens, UniProt Q14004); test: as above; settings: read-out: % Inhibition Avg
RIPK3 = RIPK3 (Homo sapiens, UniProt Q9Y572); test: as above; settings: RIPK3, 10 µM
P450 2C19 [1] = biological target: T1, P450 2C19 (Homo sapiens, UniProt P33261); test: SelectScreen P450 Vivid biochemical assay; settings: 10000nM; substrate EOMCC
BRAF V599E = BRAF V599E (Homo sapiens, UniProt P15056, V600E); test: SelectScreen kinase profiling, LanthaScreen binding
LTK (TYK1) = LTK (TYK1) (Homo sapiens, UniProt P29376); test: SelectScreen kinase profiling, ZLYTE; assay type: biochemical
EPHB2 = EPHB2 (Homo sapiens, UniProt P29323); test: SelectScreen kinase profiling, ZLYTE; assay type: biochemical; settings: EPHB2, 10 µM
ABL1 H396P = ABL1 H396P (Homo sapiens, UniProt P00519, H396P); test: SelectScreen kinase profiling, LanthaScreen binding
PDGFRA V561D = PDGFRA V561D (Homo sapiens, UniProt P16234, V561D); test: SelectScreen kinase profiling, ZLYTE; assay type: biochemical
P450 2C19 [2] = biological target: T1, P450 2C19
MYO3A (MYO3 alpha) = MYO3A (MYO3 alpha) (Homo sapiens, UniProt Q8NEV4); test: SelectScreen kinase profiling, LanthaScreen binding
BRSK1 (SAD1) = BRSK1 (SAD1) (Homo sapiens, UniProt Q8TDC3); test: SelectScreen kinase profiling, ZLYTE; assay type: biochemical
KIT T670E = KIT T670E (Homo sapiens, UniProt P10721, T670E); test: SelectScreen kinase profiling, LanthaScreen binding
SGK2 = SGK2 (Homo sapiens, UniProt Q9HBY8); test: SelectScreen kinase profiling, ZLYTE; assay type: biochemical; settings: SGK2, 10 µM
DYRK1B = DYRK1B (Homo sapiens, UniProt Q9Y463); test: SelectScreen kinase profiling, ZLYTE; assay type: biochemical
LRRK2 I2020T = LRRK2 I2020T (Homo sapiens, UniProt Q5S007, I2020T); test: SelectScreen kinase profiling, Adapta; assay type: biochemical
TEK (TIE2) Y1108F = TEK (TIE2) Y1108F (Homo sapiens, UniProt Q02763, Y1108F); test: SelectScreen kinase profiling, LanthaScreen binding
P450 2C9 = P450 2C9 (Homo sapiens, UniProt P11712); test: SelectScreen P450 Vivid biochemical assay; settings: 10000nM; substrate BOMF
RET V804M = RET V804M (Homo sapiens, UniProt P07949, V804M); test: SelectScreen kinase profiling, LanthaScreen binding
AMPK (A2/B1/G3) = AMPK (A2/B1/G3) (Homo sapiens, UniProt P54646); test: SelectScreen kinase profiling, ZLYTE; assay type: biochemical
ABL1 G250E = ABL1 G250E (Homo sapiens, UniProt P00519, G250E); test: SelectScreen kinase profiling, ZLYTE; assay type: biochemical
ACVR1 (ALK2) = ACVR1 (ALK2) (Homo sapiens, UniProt Q04771); test: SelectScreen kinase profiling, LanthaScreen binding
EPHB1 = EPHB1 (Homo sapiens, UniProt P54762); test: SelectScreen kinase profiling, ZLYTE; assay type: biochemical; settings: EPHB1, 10 µM
MAPK10 (JNK3) = MAPK10 (JNK3) (Homo sapiens, UniProt P53779); test: SelectScreen kinase profiling, ZLYTE; assay type: biochemical
ALK = ALK (Homo sapiens, UniProt Q9UM73); test: SelectScreen kinase profiling, ZLYTE; assay type: biochemical
ACVR1 (ALK2) R206H = ACVR1 (ALK2) R206H (Homo sapiens, UniProt Q04771, R206H); test: SelectScreen kinase profiling, LanthaScreen binding
MAP3K10 (MLK2) = MAP3K10 (MLK2) (Homo sapiens, UniProt Q02779); test: as above
MKNK2 (MNK2) = MKNK2 (MNK2) (Homo sapiens, UniProt Q9HBH9); test: as above
PAK6 = PAK6 (Homo sapiens, UniProt Q9NQU5); test: SelectScreen kinase profiling, ZLYTE; assay type: biochemical; settings: PAK6, 10 µM
PIK3C2G (PI3K-C2 gamma) = PIK3C2G (PI3K-C2 gamma) (Homo sapiens, UniProt O75747); test: SelectScreen kinase profiling, Adapta; assay type: biochemical
PRKCB1 (PKC beta I) = PRKCB1 (PKC beta I) (Homo sapiens, UniProt P05771); test: SelectScreen kinase profiling, ZLYTE; assay type: biochemical

T1 sequence (P33261 whole entry): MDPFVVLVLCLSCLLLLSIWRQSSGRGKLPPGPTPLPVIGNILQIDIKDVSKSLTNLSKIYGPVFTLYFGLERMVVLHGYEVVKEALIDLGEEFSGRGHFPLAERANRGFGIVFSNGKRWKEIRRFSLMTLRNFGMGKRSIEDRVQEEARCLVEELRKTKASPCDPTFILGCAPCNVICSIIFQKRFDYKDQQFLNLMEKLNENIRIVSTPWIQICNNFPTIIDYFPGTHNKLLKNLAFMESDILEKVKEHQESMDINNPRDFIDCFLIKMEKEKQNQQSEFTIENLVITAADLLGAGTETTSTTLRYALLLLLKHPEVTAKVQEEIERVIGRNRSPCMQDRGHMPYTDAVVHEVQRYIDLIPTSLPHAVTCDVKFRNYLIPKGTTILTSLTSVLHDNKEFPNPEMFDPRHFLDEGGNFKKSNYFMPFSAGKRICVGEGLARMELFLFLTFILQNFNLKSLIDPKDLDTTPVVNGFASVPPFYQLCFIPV
Sequence of PDGFRA V561D (P16234 24-1089 V561D): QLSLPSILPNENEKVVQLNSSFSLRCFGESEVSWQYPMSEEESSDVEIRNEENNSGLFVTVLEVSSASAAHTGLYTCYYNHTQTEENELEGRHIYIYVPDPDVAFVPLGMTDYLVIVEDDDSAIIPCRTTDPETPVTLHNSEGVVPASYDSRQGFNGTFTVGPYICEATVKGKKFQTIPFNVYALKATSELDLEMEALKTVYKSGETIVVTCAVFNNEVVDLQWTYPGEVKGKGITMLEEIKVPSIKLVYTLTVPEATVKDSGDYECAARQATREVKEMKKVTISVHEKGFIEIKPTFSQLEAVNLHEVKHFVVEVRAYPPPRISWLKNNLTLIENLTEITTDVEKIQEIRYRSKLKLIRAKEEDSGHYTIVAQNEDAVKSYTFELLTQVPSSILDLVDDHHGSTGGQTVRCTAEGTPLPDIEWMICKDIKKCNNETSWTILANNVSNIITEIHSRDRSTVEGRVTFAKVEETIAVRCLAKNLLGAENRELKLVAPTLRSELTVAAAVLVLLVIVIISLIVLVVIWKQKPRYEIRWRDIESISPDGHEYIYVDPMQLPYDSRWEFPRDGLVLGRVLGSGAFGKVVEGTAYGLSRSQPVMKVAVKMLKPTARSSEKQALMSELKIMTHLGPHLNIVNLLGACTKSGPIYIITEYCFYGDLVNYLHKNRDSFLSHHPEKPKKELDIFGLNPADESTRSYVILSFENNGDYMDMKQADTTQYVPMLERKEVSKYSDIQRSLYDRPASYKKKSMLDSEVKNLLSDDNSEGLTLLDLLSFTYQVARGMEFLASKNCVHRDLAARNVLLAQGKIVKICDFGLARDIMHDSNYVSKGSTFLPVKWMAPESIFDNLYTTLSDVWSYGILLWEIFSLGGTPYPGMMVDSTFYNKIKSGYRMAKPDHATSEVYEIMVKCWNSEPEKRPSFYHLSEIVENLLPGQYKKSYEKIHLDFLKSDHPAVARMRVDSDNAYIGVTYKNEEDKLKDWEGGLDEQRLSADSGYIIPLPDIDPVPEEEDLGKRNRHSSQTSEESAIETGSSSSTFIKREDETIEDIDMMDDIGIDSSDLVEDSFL
Sequence of TEK (TIE2) Y1108F (Q02763 23-1124 Y1108F): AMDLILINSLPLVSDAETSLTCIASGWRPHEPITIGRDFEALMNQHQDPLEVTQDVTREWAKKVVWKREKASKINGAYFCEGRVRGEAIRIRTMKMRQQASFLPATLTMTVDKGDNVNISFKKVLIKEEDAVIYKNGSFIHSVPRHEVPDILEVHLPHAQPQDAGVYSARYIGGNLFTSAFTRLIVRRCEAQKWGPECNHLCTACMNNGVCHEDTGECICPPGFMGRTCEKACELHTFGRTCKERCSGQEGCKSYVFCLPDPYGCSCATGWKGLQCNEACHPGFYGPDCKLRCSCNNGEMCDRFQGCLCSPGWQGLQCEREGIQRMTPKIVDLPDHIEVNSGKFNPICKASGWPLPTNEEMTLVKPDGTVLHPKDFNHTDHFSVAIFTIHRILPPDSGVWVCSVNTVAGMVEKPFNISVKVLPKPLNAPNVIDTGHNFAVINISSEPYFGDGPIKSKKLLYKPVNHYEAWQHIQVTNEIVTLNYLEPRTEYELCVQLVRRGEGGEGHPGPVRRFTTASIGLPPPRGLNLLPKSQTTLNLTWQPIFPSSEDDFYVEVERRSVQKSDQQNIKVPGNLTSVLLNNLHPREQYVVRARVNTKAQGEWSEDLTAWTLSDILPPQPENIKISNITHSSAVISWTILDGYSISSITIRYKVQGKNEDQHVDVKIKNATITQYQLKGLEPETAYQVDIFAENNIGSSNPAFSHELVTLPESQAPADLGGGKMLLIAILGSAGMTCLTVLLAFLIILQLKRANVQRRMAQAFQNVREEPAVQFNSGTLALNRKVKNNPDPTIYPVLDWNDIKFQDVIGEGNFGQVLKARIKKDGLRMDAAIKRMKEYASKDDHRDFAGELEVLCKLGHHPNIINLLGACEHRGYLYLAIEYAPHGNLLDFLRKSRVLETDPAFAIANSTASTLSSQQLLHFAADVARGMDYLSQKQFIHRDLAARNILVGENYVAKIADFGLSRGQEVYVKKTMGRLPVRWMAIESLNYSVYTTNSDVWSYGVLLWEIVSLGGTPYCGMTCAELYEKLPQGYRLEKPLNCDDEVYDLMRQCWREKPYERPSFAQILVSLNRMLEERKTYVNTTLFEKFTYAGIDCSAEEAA
Sequence of AMPK (A1/B1/G2) (Q13131 whole entry): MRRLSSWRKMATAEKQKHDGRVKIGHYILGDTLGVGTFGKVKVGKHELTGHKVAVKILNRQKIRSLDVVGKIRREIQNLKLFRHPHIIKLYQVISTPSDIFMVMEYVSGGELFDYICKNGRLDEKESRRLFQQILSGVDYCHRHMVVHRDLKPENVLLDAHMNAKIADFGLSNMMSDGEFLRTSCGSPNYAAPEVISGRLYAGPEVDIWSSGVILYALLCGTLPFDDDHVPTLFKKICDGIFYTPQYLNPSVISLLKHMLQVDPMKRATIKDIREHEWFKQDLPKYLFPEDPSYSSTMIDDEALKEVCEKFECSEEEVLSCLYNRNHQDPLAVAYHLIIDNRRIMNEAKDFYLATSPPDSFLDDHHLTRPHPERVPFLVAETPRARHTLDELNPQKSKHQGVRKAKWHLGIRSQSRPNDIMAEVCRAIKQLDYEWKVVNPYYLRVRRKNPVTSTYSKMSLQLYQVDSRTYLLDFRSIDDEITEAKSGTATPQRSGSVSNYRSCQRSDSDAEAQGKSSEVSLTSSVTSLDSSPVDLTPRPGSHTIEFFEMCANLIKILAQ
Sequence of AMPK (A1/B1/G2) (Q9Y478 whole entry partner): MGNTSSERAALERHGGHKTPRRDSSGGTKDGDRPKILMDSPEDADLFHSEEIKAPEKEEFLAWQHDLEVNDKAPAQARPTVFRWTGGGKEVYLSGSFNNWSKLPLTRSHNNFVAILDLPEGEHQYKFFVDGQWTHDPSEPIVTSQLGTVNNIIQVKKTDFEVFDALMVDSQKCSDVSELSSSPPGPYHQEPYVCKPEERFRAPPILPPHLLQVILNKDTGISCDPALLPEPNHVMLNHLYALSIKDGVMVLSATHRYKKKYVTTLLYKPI
Sequence of AMPK (A1/B1/G2) (Q9UGJ0 whole entry partner): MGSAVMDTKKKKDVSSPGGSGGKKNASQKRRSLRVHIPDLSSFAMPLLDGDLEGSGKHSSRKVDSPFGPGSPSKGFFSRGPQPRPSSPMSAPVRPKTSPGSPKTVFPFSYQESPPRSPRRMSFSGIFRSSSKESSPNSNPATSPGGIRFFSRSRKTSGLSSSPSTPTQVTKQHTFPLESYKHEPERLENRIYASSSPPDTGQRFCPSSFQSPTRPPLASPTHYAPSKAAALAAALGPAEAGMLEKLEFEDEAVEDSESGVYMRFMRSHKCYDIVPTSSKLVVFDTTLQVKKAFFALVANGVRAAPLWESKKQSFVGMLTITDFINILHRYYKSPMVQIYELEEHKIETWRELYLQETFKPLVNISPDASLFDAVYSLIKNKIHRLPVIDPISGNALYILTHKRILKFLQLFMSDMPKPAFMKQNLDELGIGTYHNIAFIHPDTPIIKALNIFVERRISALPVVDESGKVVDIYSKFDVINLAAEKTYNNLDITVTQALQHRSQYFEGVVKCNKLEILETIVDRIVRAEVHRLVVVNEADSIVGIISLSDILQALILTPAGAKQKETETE
Sequence of SGK2 (Q9HBY8 whole entry): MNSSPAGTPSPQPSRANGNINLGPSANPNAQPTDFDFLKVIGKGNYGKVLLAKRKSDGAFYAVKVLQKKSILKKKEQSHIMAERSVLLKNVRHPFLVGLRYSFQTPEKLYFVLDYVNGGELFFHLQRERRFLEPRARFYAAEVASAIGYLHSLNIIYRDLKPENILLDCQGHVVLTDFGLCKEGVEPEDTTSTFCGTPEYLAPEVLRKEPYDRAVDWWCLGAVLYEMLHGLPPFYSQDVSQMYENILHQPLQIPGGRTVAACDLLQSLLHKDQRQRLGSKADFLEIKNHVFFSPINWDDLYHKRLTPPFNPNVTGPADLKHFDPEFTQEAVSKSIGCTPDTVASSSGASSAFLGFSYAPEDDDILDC
Sequence of BRAF V599E (P15056 416-766 V600E limits assumed): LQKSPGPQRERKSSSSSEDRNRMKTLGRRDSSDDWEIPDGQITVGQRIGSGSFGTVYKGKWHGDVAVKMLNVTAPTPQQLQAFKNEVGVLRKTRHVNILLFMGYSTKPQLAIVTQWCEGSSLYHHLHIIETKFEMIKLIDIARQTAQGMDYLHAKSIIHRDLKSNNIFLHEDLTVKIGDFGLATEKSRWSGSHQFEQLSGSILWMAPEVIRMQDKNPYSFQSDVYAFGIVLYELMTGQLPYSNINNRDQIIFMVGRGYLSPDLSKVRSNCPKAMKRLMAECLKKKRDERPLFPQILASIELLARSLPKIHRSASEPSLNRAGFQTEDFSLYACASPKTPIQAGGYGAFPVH

Structure (SMILES): O=C(c1ccc(/C=C/c2n[nH]c3ccccc23)cc1)N1CCNCC1 [KW-2449]
- inhibition at 10 µM (FLT3): 100%
- inhibition at 10 µM (SGKL (SGK3)): 52%
- inhibition at 10 µM (PI4K2B (PI4K2 beta)): -1%
- hERG % Inhibition (hERG channel): 19%
- inhibition at 10 µM (SPHK2): 7%
- inhibition at 10 µM (FRK (PTK5)): 90%
- inhibition at 10 µM (MAP4K4 (HGK)): 98%
- inhibition at 10 µM (PLK3): -10%
- inhibition at 10 µM (AMPK (A1/B1/G2)): 85%
- inhibition at 10 µM (CDK13/cyclin K): 70%
- inhibition at 10 µM (RIPK3): 18%
- % Inhibition 2C19 EOMCC (P450 2C19 [1]): 51%
- inhibition at 10 µM (BRAF V599E): 6%
- inhibition at 10 µM (LTK (TYK1)): 90%
- inhibition at 10 µM (EPHB2): 95%
- inhibition at 10 µM (ABL1 H396P): 78%
- inhibition at 10 µM (PDGFRA V561D): 97%
- IC50 (P450 2C19 [2]): 9.41 µM
- inhibition at 10 µM (MYO3A (MYO3 alpha)): 59%
- inhibition at 10 µM (BRSK1 (SAD1)): 99%
- inhibition at 10 µM (KIT T670E): 89%
- inhibition at 10 µM (SGK2): 95%
- inhibition at 10 µM (DYRK1B): 91%
- inhibition at 10 µM (LRRK2 I2020T): 100%
- inhibition at 10 µM (TEK (TIE2) Y1108F): 72%
- % Inhibition 2C9 BOMF (P450 2C9): -2%
- inhibition at 10 µM (RET V804M): -5%
- inhibition at 10 µM (AMPK (A2/B1/G3)): 96%
- inhibition at 10 µM (ABL1 G250E): 100%
- inhibition at 10 µM (ACVR1 (ALK2)): 94%
- inhibition at 10 µM (EPHB1): 97%
- inhibition at 10 µM (MAPK10 (JNK3)): 59%
- inhibition at 10 µM (ALK): 101%
- inhibition at 10 µM (ACVR1 (ALK2) R206H): 69%
- inhibition at 10 µM (MAP3K10 (MLK2)): 87%
- inhibition at 10 µM (MKNK2 (MNK2)): 68%
- inhibition at 10 µM (PAK6): 60%
- inhibition at 10 µM (PIK3C2G (PI3K-C2 gamma)): 2%
- inhibition at 10 µM (PRKCB1 (PKC beta I)): 19%
